Like-named read-outs stand apart in the source and are kept apart here.
Experiments:
Assay in all cases: Kinase selectivity, P33-radiolabeled assay
Format in all cases: biochemical
DCAMKL2 = biological target: T1, DCAMKL2 (Homo sapiens, UniProt Q8N568); settings: 10 μM ATP
T1 construct: purchased Reaction Biology Corp
T1 sequence (Q8N568 1-766): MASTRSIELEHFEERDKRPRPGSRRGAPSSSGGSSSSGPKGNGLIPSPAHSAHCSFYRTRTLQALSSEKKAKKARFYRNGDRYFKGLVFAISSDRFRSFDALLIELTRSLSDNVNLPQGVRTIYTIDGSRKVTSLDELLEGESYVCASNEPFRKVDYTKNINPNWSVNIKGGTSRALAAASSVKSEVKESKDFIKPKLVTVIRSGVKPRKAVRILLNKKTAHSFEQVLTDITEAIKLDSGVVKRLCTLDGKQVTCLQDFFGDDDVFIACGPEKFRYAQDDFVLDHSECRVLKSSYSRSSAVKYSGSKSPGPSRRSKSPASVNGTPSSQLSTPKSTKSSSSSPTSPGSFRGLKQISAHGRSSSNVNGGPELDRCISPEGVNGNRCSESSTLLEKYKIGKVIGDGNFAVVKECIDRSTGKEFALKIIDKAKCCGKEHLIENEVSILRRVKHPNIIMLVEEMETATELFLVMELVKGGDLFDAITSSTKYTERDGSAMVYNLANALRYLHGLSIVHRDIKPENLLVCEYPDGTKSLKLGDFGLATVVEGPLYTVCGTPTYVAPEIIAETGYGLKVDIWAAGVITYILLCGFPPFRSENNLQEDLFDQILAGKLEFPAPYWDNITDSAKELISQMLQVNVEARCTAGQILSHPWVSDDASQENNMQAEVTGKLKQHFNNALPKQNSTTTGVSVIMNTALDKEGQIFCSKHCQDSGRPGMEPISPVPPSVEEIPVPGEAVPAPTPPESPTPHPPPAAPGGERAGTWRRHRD
In short: (§1)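 Activity relative to DMSO controls (%) was measured for compound at 10 μM. Assays ran at 10 μM ATP, in duplicate.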

EPHA6 = biological target: T2, EPHA6 (Homo sapiens, UniProt Q9UF33); settings: 10 μM ATP
T2 construct: purchased Reaction Biology Corp
T2 sequence (Q9UF33 23-1036): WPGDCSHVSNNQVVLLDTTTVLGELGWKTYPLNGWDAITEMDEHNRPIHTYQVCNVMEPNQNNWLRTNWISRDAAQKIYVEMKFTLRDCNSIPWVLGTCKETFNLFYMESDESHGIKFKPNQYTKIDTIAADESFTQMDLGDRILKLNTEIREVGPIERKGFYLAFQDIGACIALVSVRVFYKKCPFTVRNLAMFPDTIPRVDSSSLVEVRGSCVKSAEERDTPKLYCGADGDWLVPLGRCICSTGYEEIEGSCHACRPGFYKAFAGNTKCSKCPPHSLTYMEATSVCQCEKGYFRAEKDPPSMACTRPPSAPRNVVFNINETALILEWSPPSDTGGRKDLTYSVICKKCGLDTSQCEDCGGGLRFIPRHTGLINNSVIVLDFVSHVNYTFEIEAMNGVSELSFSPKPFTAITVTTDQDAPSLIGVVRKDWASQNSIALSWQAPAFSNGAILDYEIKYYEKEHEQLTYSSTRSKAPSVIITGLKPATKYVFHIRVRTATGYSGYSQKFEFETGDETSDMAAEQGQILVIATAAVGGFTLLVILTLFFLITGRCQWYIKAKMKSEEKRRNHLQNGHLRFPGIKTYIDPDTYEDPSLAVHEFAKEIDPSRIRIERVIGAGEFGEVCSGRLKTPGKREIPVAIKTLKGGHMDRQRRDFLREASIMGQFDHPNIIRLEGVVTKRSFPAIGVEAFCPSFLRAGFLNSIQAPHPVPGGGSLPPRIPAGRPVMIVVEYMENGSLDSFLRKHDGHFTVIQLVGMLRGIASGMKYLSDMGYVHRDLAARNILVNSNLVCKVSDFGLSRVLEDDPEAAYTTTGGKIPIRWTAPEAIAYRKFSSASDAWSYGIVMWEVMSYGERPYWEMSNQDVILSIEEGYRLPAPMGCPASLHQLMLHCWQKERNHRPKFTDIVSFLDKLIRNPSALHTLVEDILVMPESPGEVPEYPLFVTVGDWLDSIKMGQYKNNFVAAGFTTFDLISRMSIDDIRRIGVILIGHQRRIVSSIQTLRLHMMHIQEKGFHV
In short: as §1

ROS/ROS1 = biological target: T3, ROS/ROS1 (Homo sapiens, UniProt P08922)
T3 construct: purchased Reaction Biology Corp
In short: as §1

TNK1 = biological target: T4, TNK1 (Homo sapiens, UniProt Q13470); settings: 10 μM ATP
T4 construct: purchased Reaction Biology Corp
T4 sequence (Q13470 1-666): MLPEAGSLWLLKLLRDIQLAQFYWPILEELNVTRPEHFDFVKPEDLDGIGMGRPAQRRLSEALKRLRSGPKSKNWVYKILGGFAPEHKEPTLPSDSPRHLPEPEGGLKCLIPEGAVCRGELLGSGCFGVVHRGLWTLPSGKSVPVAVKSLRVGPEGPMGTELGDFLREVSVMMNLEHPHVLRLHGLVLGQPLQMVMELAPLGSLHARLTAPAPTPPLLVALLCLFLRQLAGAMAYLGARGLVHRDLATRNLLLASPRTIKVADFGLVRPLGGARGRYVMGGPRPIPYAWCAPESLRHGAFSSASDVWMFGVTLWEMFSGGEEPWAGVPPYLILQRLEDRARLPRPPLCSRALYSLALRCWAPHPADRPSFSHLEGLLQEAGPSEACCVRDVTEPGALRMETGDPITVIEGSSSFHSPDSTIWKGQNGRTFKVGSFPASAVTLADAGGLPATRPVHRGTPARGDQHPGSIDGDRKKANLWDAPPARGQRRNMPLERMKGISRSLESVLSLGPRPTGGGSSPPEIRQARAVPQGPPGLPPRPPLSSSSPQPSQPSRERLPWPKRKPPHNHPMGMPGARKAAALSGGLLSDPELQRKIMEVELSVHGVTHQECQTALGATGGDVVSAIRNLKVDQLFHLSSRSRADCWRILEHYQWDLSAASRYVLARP
In short: as §1

[1] = read-out: % Enzyme Activity (relative to DMSO controls) AVG
[2] = read-out: % Enzyme Activity (relative to DMSO controls) Data 1
[3] = read-out: % Enzyme Activity (relative to DMSO controls) Data 2

T3 sequence (P08922 28-2347): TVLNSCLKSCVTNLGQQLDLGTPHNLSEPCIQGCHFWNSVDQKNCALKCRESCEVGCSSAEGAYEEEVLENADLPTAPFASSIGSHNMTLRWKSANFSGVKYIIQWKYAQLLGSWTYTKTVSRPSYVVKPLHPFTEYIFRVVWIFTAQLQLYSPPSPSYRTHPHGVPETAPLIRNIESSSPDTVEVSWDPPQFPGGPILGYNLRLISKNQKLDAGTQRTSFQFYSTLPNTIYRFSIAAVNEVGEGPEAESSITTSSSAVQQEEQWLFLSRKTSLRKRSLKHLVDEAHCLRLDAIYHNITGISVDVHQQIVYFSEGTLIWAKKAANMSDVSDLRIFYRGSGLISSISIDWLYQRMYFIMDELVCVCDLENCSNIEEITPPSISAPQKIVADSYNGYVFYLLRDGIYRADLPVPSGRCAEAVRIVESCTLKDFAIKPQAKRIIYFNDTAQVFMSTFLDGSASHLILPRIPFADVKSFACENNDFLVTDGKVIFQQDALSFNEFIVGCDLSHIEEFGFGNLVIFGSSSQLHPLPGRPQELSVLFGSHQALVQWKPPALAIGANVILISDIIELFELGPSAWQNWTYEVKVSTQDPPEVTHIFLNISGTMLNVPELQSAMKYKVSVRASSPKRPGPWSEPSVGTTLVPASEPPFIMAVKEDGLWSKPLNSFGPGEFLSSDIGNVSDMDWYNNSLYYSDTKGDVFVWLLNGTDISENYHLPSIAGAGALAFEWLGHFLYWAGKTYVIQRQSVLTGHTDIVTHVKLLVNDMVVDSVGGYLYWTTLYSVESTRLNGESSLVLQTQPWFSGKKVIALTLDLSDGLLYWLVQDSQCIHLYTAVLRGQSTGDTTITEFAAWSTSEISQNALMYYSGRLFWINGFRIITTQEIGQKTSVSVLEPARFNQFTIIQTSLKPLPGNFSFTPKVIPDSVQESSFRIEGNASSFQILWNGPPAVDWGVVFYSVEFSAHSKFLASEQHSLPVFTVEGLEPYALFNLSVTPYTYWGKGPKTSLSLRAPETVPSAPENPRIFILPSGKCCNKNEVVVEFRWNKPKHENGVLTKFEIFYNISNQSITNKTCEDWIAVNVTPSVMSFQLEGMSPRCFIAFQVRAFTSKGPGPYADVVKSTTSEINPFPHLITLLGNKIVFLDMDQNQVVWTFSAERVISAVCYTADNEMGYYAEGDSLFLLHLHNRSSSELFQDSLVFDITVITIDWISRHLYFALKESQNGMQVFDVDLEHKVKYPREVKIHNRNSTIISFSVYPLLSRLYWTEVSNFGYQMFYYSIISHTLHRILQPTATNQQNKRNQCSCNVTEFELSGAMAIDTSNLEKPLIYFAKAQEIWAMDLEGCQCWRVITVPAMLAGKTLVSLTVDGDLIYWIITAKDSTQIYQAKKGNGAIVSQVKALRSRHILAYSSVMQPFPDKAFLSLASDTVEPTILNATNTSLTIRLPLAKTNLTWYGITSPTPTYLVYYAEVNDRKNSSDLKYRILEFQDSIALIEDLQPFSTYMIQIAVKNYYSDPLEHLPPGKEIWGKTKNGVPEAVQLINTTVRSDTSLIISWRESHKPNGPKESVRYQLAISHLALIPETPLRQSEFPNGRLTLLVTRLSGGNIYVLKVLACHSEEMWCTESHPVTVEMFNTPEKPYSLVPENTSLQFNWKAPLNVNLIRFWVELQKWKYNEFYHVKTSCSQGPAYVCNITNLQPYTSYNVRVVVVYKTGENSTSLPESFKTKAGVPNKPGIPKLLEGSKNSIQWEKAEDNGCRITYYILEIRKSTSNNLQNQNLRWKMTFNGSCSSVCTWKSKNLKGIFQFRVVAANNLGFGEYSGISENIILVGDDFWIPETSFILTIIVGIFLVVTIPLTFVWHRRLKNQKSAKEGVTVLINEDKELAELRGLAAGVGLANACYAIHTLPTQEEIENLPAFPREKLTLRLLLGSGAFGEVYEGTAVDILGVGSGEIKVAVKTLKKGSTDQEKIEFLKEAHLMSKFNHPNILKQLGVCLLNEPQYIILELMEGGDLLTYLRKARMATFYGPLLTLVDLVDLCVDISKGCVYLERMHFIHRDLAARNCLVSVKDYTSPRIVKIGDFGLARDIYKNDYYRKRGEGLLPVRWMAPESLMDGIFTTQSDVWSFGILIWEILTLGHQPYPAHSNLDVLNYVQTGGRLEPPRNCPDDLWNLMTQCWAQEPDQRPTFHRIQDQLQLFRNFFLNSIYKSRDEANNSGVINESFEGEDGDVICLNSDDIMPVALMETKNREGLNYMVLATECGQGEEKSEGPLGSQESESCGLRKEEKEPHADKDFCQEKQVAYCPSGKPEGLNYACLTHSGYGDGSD

CC(C)(C)C(=O)N1N=CC[C@H]1c1ccccc1 [GSK′963] showed a remaining activity at 10 µM (DCAMKL2; [1]) of 101%, a remaining activity at 10 µM (DCAMKL2; [2]) of 100% and a remaining activity at 10 µM (DCAMKL2; [3]) of 102%. The remaining activity at 10 µM (EPHA6; [1]) was 99.3%, the remaining activity at 10 µM (EPHA6; [2]) was 101% and the remaining activity at 10 µM (EPHA6; [3]) was 97.5%. It also gave a remaining activity at 10 µM (ROS/ROS1; 10 uM, 10 μM ATP, read-out: % Enzyme Activity (relative to DMSO controls) Data 1) of 102%, a remaining activity at 10 µM (ROS/ROS1; 10 uM, 10 μM ATP, read-out: % Enzyme Activity (relative to DMSO controls) Data 2) of 100% and a remaining activity at 10 µM (ROS/ROS1; [1]) of 101%. The remaining activity at 10 µM (TNK1; [1]) was 98.8%, the remaining activity at 10 µM (TNK1; [2]) was 100% and the remaining activity at 10 µM (TNK1; [3]) was 97.2%.
